Bridges are numbered along the chain shown (N, C = ends). Roman numbers before positions name the chains, in order. Where no end group is shown, it is not given here.
T1: brain-derived NEP (Mus musculus, UniProt Q61391)
T1 construct: Clear supernatants were used as membrane-extracted fractions; from tissue; host or cells: adult mouse brain without cerebellum, Triton X-100-extracted membrane fraction
T1 sequence (Q61391 1-750): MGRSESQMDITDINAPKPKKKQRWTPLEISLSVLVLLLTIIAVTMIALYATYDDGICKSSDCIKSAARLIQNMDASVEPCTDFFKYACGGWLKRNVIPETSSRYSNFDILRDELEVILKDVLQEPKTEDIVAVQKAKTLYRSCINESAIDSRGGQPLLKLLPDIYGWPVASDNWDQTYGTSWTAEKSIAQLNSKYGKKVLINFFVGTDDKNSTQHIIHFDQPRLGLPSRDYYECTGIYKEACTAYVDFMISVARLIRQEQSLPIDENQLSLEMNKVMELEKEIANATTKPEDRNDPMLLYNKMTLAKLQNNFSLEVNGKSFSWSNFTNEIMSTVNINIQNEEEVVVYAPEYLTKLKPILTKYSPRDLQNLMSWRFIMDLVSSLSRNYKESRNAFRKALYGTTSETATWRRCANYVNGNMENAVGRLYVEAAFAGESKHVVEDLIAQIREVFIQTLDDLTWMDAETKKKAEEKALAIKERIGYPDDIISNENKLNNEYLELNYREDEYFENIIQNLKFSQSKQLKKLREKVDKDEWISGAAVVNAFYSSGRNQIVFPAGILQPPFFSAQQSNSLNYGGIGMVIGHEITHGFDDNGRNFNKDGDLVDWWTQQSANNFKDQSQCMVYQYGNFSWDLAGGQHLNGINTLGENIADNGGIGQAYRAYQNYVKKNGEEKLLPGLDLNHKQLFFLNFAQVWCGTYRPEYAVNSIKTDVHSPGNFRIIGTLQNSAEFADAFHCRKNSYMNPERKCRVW

B1: NL1: recombinant rat neuroligin-1, soluble ectodomain (R&D systems) (protein, UniProt Q62765 46-697, looked up)
extracellular domain: QKLDDVDPLVTTNFGKIRGIKKELNNEILGPVIQFLGVPYAAPPTGEHRFQPPEPPSPWSDIRNATQFAPVCPQNIIDGRLPEVMLPVWFTNNLDVVSSYVQDQSEDCLYLNIYVPTEDVKRISKECARKPGKKICRKGDIRDSGGPKPVMVYIHGGSYMEGTGNLYDGSVLASYGNVIVITVNYRLGVLGFLSTGDQAAKGNYGLLDLIQALRWTSENIGFFGGDPLRITVFGSGAGGSCVNLLTLSHYSEGNRWSNSTKGLFQRAIAQSGTALSSWAVSFQPAKYARILATKVGCNVSDTVELVECLQKKPYKELVDQDVQPARYHIAFGPVIDGDVIPDDPQILMEQGEFLNYDIMLGVNQGEGLKFVENIVDSDDGVSASDFDFAVSNFVDNLYGYPEGKDVLRETIKFMYTDWADRHNPETRRKTLLALFTDHQWVAPAVATADLHSNFGSPTYFYAFYHHCQTDQVPAWADAAHGDEVPYVLGIPMIGPTELFPCNFSKNDVMLSAVVMTYWTNFAKTGDPNQPVPQDTKFIHTKPNRFEEVAWTRYSQKDQLYLHIGLKPRVKEHYRANKVNLWLELVPHLHNLNDISQYTSTTTKVPSTDITLRPTRKNSTPVTSAFPTAKQDDPKQQPSPFSVDQRDYSTELS
modifications: extracellular domain

Columns and labels:
Aβ1-42 = biological target: T2, Aβ1-42 (Homo sapiens, UniProt P05067); test: Aβ1-42 aggregation assay (thioflavin T fluorescence); conditions: 8 days, 50 mM Tris pH 7.4, ThT 5 μM, triplicates, slopes compared with Aβ alone
T2 construct: Aβ1-42, at a final concentration of 75 μM (pH 7.4); purchased Bachem AG (Bubendorf, Switzerland) or Schafer-N; host or cells: synthetic peptide
Method: Aβ1-42 was dissolved in sterile deionized water to a final concentration of 1 mM. Then, the peptide was subjected to a basic shock by adding 2 M NaOH to pH 12 followed by neutralization with 1 M HCl. Aβ1-42, at a final concentration of 75 μM (pH 7.4) either alone or in combination with NL1 (1 μM), neurolide (10 μM), or NLp7 (10 μM), was loaded in triplicates on 96-well plate. Immediately after mixing the samples, thioflavin T (5 μM, ThT; Sigma-Aldrich), dissolved in the aggregation buffer (50 mM Tris, pH 7.4), was added to wells and plate was incubated at 37 °C for 8 days. The formation of beta-amyloid aggregates was monitored first for 210 min and then every 24 h by recording changes in ThT fluorescence at excitation/emission (Ex/Em) = 440/482 nm.

[1] = Integrity after prolonged incubation under aggregation assay conditions (immunoblot); format: physicochemical; conditions: aggregation buffer 50 mM Tris pH 7.4, 37 °C, 8 days; His-tagged NL1 200 nM, biotinylated neurolide 6.7 μM; SDS-PAGE and Western blot versus fresh samples
Method: After 8-day incubation, they were subjected to conventional SDS polyacrylamide gel electrophoresis on a pre-casted gel (Any kD Mini-PROTEAN TGX gel, Bio-Rad) and transferred to a PVDF membranes (Millipore) together with freshly prepared samples of sNL1 and b-neurolide as corresponding positive controls. Subsequently, membranes were blocked in 5% (wt/vol) non-fat dry milk in PBST (PBS containing 0.05% [vol/vol] Tween-20). To detect sNL1, blots were probed overnight with a 6x-His tag monoclonal antibody (1:2000, Thermo Fisher Scientific) at 4 °C, followed by incubation for 1 h at room temperature with an anti-mouse horseradish peroxidase (HRP)-conjugated secondary antibody (1:10,000, Thermo Fisher Scientific). B-neurolide was detected by incubation for 1 h at room temperature with a streptavidin-HRP complex (1:5000, Dako). Chemiluminescent signal on the blot was developed by employing the SuperSignal ELISA Femto Substrate kit (Thermo Fisher Scientific) according to the manufacturer’s instructions, and images were acquired using an AlphaImager system (Alpha Innotech).
Supplementary file 12035_2024_4475_Fig8_ESM.png: Supplementary Fig. 3. […] NL1 (200 nM; R&D Systems) and biotinylated neurolide (6.7 μM; Schafer-N) were dissolved in the aggregation buffer, incubated at 37°C for 8 days, followed by conventional immunoblotting. […]

brain-derived NEP = biological target: T1, brain-derived NEP; test: Neprilysin activity in NEP-enriched brain membrane fraction of WT mice; format: biochemical, mouse (C57Bl/6j); conditions: 40 μg protein, n = 5
Method: To measure NEP activity in brain tissue, whole brains without cerebellum were dissected from adult mice (C57Bl/6j or 5XFAD) and homogenized with a Teflon-glass homogenizer in five volumes (w/v) of ice-cold lysis buffer containing PBS (pH 7.4), 0.25 M sucrose and protease inhibitor cocktail (Complete™, EDTA-free, Roche Diagnostics, Indianapolis, IN). The homogenates were centrifuged at 9000 × g for 15 min at 4 °C. The supernatants were further centrifuged at 20,000 × g at 4 °C for 20 min. The resulting pellets were solubilized in resuspension buffer containing PBS (pH 7.4) and 1% Triton X-100 for 1 h on ice and again centrifuged at 20,000 × g at 4 °C for 20 min. Clear supernatants were used as membrane-extracted fractions. Protein concentrations of Triton-extracted membrane fractions were determined using the Pierce BCA Protein Assay kit (Thermo Fisher Scientific). The standard assay mixture consisted of membrane fraction containing 40 μg total protein diluted in 40 μl of dilution buffer, 10 μl of testing compound (NL1, neurolide or vehicle), and 50 μl of NEP substrate (5-FAM/QXL; Anaspec) in a total volume of 100 μl. The reaction was initiated by adding substrate to the assay mixture. […] Positive and negative controls were set up according to the manufacturer’s protocol (Anaspec). Fluorescence was measured at Ex/Em = 485/535 nm every 20 min for 2 h. The data were expressed as percentage of relative activity of neprilysin.

T2 sequence (P05067 672-713): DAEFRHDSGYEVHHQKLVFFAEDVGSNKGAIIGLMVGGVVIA

Row | Molecule | development of ThT fluorescence (Aβ aggregation) (Aβ1-42; 75 μM Aβ1-42 + 10 μM peptide, 37 °C) | integrity after prolonged incubation [1] | activity of brain-derived NEP (brain-derived NEP; neurolide 10 μM) | rise of ThT fluorescence (Aβ aggregation) (Aβ1-42; 75 μM Aβ1-42 + 1 μM sNL1, 37 °C, Ex/Em 440/482 nm) | activity of brain-derived NEP (brain-derived NEP; sNL1 0.3 μM)
1 | I: SEGNRWSNSTKGLFQRAKK-NH2 / II: SEGNRWSNSTKGLFQRAK / III: SEGNRWSNSTKGLFQRA / IV: SEGNRWSNSTKGLFQRA (amide I:18-IV:C, I:19-II:C, II:18-III:C; C-terminus assumed) [neurolide] | attenuate Aβ peptide aggregation | remained intact | significantly decreased | – | –
2 | B1 | – | remained intact | – | significantly decreased | significantly decreased
